Test results: patent US11135234B2, “Effective aminoglycoside antibiotic for multidrug-resistant bacteria” (MICROBIAL CHEMISTRY RESEARCH FOUNDATION, priority 2015, dated 2021)
In brackets after ≈: the same amount, converted by molar mass.

Key:
[1] = test system: K. pneumoniae ATCC BAA-2146; assay: MIC, agar plate dilution method, K. pneumoniae ATCC BAA-2146; assay type: cell-based, Klebsiella pneumoniae; conditions: for MIC: Klebsiella pneumoniae, ATCCBAA2146, K. pneumoniae ATCC BAA-2146, NDM-producing strain, read-out: minimal inhibitory concentration (MIC); for minimal inhibitory concentration (MIC): K. pneumoniae ATCC BAA-2146, NDM-producing strain
Method in brief: (§1)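 Japan Society of Chemotherapy agar dilution protocol used. MIC reported in μg/mL.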

S. marcescens TH-0447 = assay: MIC, agar plate dilution method, S. marcescens TH-0447; assay type: cell-based, Serratia marcescens; conditions: for MIC: Serratia marcescens, TH0447, S. marcescens TH-0447, AMK-resistant, read-out: minimal inhibitory concentration (MIC); for minimal inhibitory concentration (MIC): S. marcescens TH-0447, AMK-resistant
Method in brief: as §1

P. aeruginosa PAO1 = assay: MIC, agar plate dilution method, P. aeruginosa PAO1; assay type: cell-based, Pseudomonas aeruginosa; conditions: for MIC: Pseudomonas aeruginosa, PAO1, P. aeruginosa PAO1, Sensitive bacterium, read-out: minimal inhibitory concentration (MIC); for minimal inhibitory concentration (MIC): P. aeruginosa PAO1, Sensitive bacterium
Method in brief: as §1

[2] = test system: K. pneumoniae ATCC BAA-1705; assay: MIC, agar plate dilution method, K. pneumoniae ATCC BAA-1705; assay type: cell-based, Klebsiella pneumoniae; conditions: for MIC: Klebsiella pneumoniae, ATCCBAA1705, K. pneumoniae ATCC BAA-1705, KPC-producing strain, read-out: minimal inhibitory concentration (MIC); for minimal inhibitory concentration (MIC): K. pneumoniae ATCC BAA-1705, KPC-producing strain
Method in brief: as §1

S. aureus RN4220 = assay: MIC, agar plate dilution method, S. aureus RN4220; assay type: cell-based, Staphylococcus aureus; conditions: for MIC: Staphylococcus aureus, RN4220, S. aureus RN4220, Sensitive bacterium, read-out: minimal inhibitory concentration (MIC); for minimal inhibitory concentration (MIC): S. aureus RN4220, Sensitive bacterium
Method in brief: as §1

P. aeruginosa PAO1/GN315 = assay: MIC, agar plate dilution method, P. aeruginosa PAO1/GN315; assay type: cell-based, Pseudomonas aeruginosa; conditions: for MIC: Pseudomonas aeruginosa, read-out: minimal inhibitory concentration (MIC), P. aeruginosa PAO1/GN315, AMK-resistant; for minimal inhibitory concentration (MIC): P. aeruginosa PAO1/GN315, AMK-resistant
Method in brief: as §1

S. marcescens GN6944 = assay: MIC, agar plate dilution method, S. marcescens GN6944; assay type: cell-based, Serratia marcescens; conditions: S. marcescens GN6944, GM-resistant; for MIC: Serratia marcescens, read-out: minimal inhibitory concentration (MIC)
Method in brief: as §1

P. aeruginosa MSC17707 = assay: MIC, agar plate dilution method, P. aeruginosa MSC17707; assay type: cell-based, Pseudomonas aeruginosa; conditions: for MIC: Pseudomonas aeruginosa, MSC17707, P. aeruginosa MSC17707, AMK-resistant, read-out: minimal inhibitory concentration (MIC); for minimal inhibitory concentration (MIC): P. aeruginosa MSC17707, AMK-resistant
Method in brief: as §1

P. aeruginosa MSC01035 = assay: MIC, agar plate dilution method, P. aeruginosa MSC01035; assay type: cell-based, Pseudomonas aeruginosa; conditions: P. aeruginosa MSC01035, ABK-resistant; for MIC: Pseudomonas aeruginosa, read-out: minimal inhibitory concentration (MIC)
Method in brief: as §1

S. aureus MF490 = assay: MIC, agar plate dilution method, S. aureus MF490; assay type: cell-based, Staphylococcus aureus; conditions: for MIC: Staphylococcus aureus, MRSA, read-out: minimal inhibitory concentration (MIC); for minimal inhibitory concentration (MIC): S. aureus MF490, MRSA
Method in brief: as §1

[3] = test system: A. baumannii ATCC BAA-1710; assay: MIC, agar plate dilution method, A. baumannii ATCC BAA-1710; assay type: cell-based, Acinetobacter baumannii; conditions: for MIC: Acinetobacter baumannii, ATCCBAA1710, A. baumannii ATCC BAA-1710, MDRA, read-out: minimal inhibitory concentration (MIC); for minimal inhibitory concentration (MIC): A. baumannii ATCC BAA-1710, MDRA
Method in brief: as §1

E. coli JM109/pMW218 = assay: MIC, agar plate dilution method, E. coli JM109/pMW218; assay type: cell-based, Escherichia coli; conditions: for MIC: Escherichia coli, JM109/PMW218, E. coli JM109/pMW218, Sensitive bacterium, read-out: minimal inhibitory concentration (MIC); for minimal inhibitory concentration (MIC): E. coli JM109/pMW218, Sensitive bacterium
Method in brief: as §1

S. aureus RN4220/pMS520 = assay: MIC, agar plate dilution method, S. aureus RN4220/pMS520; assay type: cell-based, Staphylococcus aureus; conditions: for MIC: Staphylococcus aureus, MRSA, read-out: minimal inhibitory concentration (MIC), S. aureus RN4220/pMS520, MRSA; for minimal inhibitory concentration (MIC): S. aureus RN4220/pMS520, MRSA
Method in brief: as §1

E. faecium ATCC19434 = assay: MIC, agar plate dilution method, E. faecium ATCC19434; assay type: cell-based, Enterococcus faecium; conditions: for MIC: Enterococcus faecium, ATCC19434, E. faecium ATCC19434, read-out: minimal inhibitory concentration (MIC); for minimal inhibitory concentration (MIC): E. faecium ATCC19434
Method in brief: as §1

Compound | MIC [1] [µg/mL] | MIC (S. marcescens TH-0447) [µg/mL] | MIC (P. aeruginosa PAO1) [µg/mL] | MIC [2] [µg/mL] | MIC (S. aureus RN4220) [µg/mL] | MIC (P. aeruginosa PAO1/GN315) [µg/mL] | minimal inhibitory concentration (MIC) [1] [µg/mL] | minimal inhibitory concentration (MIC) (S. marcescens TH-0447) [µg/mL] | minimal inhibitory concentration (MIC) (P. aeruginosa PAO1) [µg/mL] | minimal inhibitory concentration (MIC) [2] [µg/mL] | minimal inhibitory concentration (MIC) (S. aureus RN4220) [µg/mL] | minimal inhibitory concentration (MIC) (P. aeruginosa PAO1/GN315) [µg/mL] | minimal inhibitory concentration (MIC) (S. marcescens GN6944) [µg/mL] | minimal inhibitory concentration (MIC) (P. aeruginosa MSC17707) [µg/mL] | minimal inhibitory concentration (MIC) (P. aeruginosa MSC01035) [µg/mL] | minimal inhibitory concentration (MIC) (S. aureus MF490) [µg/mL] | minimal inhibitory concentration (MIC) [3] [µg/mL] | minimal inhibitory concentration (MIC) (E. coli JM109/pMW218) [µg/mL] | minimal inhibitory concentration (MIC) (S. aureus RN4220/pMS520) [µg/mL] | minimal inhibitory concentration (MIC) (E. faecium ATCC19434) [µg/mL] | further results
CNC1C(O[C@H]2OC(CO)[C@@H](NC(=O)CN)[C@H](O)C2O)O[C@H]2C[C@H](N)[C@@H](O[C@@H]3C(N)C[C@@H](N)C(O)[C@H]3N)OC2C1O (stereo partly drawn) [Compound W2-b, 5-amino-5-deoxy-5-epi-4″-N-glycylapramycin] | 2 (≈ 3.36 µM) | 16 (≈ 26.9 µM) | 2 (≈ 3.36 µM) | 2 (≈ 3.36 µM) | 4 (≈ 6.72 µM) | 4 (≈ 6.72 µM) | – | – | – | – | – | – | – | – | – | – | – | – | – | – | MIC (S. marcescens GN6944): 8 µg/mL (≈ 13.4 µM); MIC (P. aeruginosa MSC17707): 4 µg/mL (≈ 6.72 µM); MIC (P. aeruginosa MSC01035): 4 µg/mL (≈ 6.72 µM); MIC (S. aureus MF490): 16 µg/mL (≈ 26.9 µM); MIC [3]: 8 µg/mL (≈ 13.4 µM); MIC (E. coli JM109/pMW218): 1 µg/mL (≈ 1.68 µM); MIC (S. aureus RN4220/pMS520): 2 µg/mL (≈ 3.36 µM); MIC (E. faecium ATCC19434): 32 µg/mL (≈ 53.7 µM)
CNC1C(OC2OC(CO)C(NC(=N)N)CC2O)OC2CC(N)C(OC3C(N)CC(N)C(O)C3O)OC2C1O (stereo not drawn) [Compound X4-a, 4″-deamino-3″-deoxy-5-epi-4″-guanidinoapramycin] | – | – | – | – | – | – | 1 (≈ 1.77 µM) | 4 (≈ 7.07 µM) | 4 (≈ 7.07 µM) | 1 (≈ 1.77 µM) | 1 (≈ 1.77 µM) | 4 (≈ 7.07 µM) | 4 (≈ 7.07 µM) | 8 (≈ 14.1 µM) | 8 (≈ 14.1 µM) | 4 (≈ 7.07 µM) | 4 (≈ 7.07 µM) | 0.5 (≈ 0.884 µM) | 1 (≈ 1.77 µM) | 8 (≈ 14.1 µM) | –
CNC1C(O[C@H]2OC(CO)[C@@H](NC(=N)N)CC2O)O[C@H]2CC(N)[C@@H](O[C@@H]3C(N)C[C@@H](N)C(O)[C@H]3F)OC2C1O (stereo partly drawn) [Compound X4-b, 4″-deamino-5,3″-dideoxy-5-epi-5-fluoro-4″-guanidinoapramycin] | 1 (≈ 1.76 µM) | 4 (≈ 7.05 µM) | 4 (≈ 7.05 µM) | 1 (≈ 1.76 µM) | 1 (≈ 1.76 µM) | 8 (≈ 14.1 µM) | – | – | – | – | – | – | – | – | – | – | – | – | – | – | MIC (S. marcescens GN6944): 4 µg/mL (≈ 7.05 µM); MIC (P. aeruginosa MSC17707): 8 µg/mL (≈ 14.1 µM); MIC (P. aeruginosa MSC01035): 16 µg/mL (≈ 28.2 µM); MIC (S. aureus MF490): 4 µg/mL (≈ 7.05 µM); MIC [3]: 16 µg/mL (≈ 28.2 µM); MIC (E. coli JM109/pMW218): 1 µg/mL (≈ 1.76 µM); MIC (S. aureus RN4220/pMS520): 1 µg/mL (≈ 1.76 µM); MIC (E. faecium ATCC19434): 8 µg/mL (≈ 14.1 µM)
CNC1C(OC2CC(O)C(N)C(CO)O2)OC2CC(N)C(OC3C(N)CC(N)C(O)C3O)OC2C1O (stereo not shown) [Compound Y3, 2″-deoxy-5,3″-diepiapramycin] | – | – | – | – | – | – | 2 (≈ 3.82 µM) | 8 (≈ 15.3 µM) | 4 (≈ 7.64 µM) | 2 (≈ 3.82 µM) | 2 (≈ 3.82 µM) | 8 (≈ 15.3 µM) | 4 (≈ 7.64 µM) | 8 (≈ 15.3 µM) | 16 (≈ 30.6 µM) | 4 (≈ 7.64 µM) | 8 (≈ 15.3 µM) | 1 (≈ 1.91 µM) | 2 (≈ 3.82 µM) | 8 (≈ 15.3 µM) | –
gentamicin [GM, reference compound] | – | – | – | – | – | – | >64 | 32 | 2 | 2 | 0.5 | 8 | 64 | 8 | >64 | >64 | >64 | 0.25 | 0.5 | 8 | –
